Test results: patent publication US8067337B2, “Agricultural chemical composition” (priority 2004, dated 2011)

Experiments:
Type in all cases: in vivo
[1] = tested on: rice seeds (variety of Kinmaze); experiment: Root length of germinated rice seeds grown on gelled culture medium containing herbicidal compound A1 and a benzoic acid compound; conditions: herbicidal compound A1 0.15 ppm, benzoic acid compound 2 ppm; after 7 days at 25° C.; percentage relative to untreated area
Protocol: Brine-sorted rice seeds (variety of Kinmaze) were soaked in a 0.5% aqueous solution of sodium hypochlorite for 10 minutes followed by washing in running water for 30 minutes and then kept at 30° C. for 36 hours to cause germination for obtaining germinated seeds. Separately, 0.3 part of gellan gum was dissolved in 100 parts of an aqueous solution of salts for Hoagland's No. 2 culture medium (a product by Sigma Co.). 13 Glass vials of 2 cm internal diameter and 5 cm height were each filled with 15 ml of the solution to which 2-[(4,6-dimethoxypyrimidin-2-yl)hydroxymethyl]-6-methoxymethyl-N-difluoromethane-sulfonylanilide (hereinafter referred to as the herbicidal compound A1) and a variety of the benzoic acid compounds indicated in Table 1 were added to make up concentrations of 0.15 ppm and 2 ppm, respectively, and kept standing to cause gelation of the solutions in the glass vial to prepare a culture medium containing the inventive composition (hereinafter referred to as the inventive culture medium). […]
Germinated seeds were grown in the same manner as in Example 1, except for not adding a benzoic acid compound to the inventive culture medium. After seven days, the lengths of the roots were measured.

[2] = tested on: Rice (Kinmaze); experiment: Rice seedlings at second leaf stage grown in liquid culture medium with herbicidal compound A1 and benzoic acid compounds; conditions: herbicidal compound A1 0.1 ppm, benzoic acid compound 3 or 1 ppm (Table 2); after 14 days
Protocol: The test culture media were prepared by adding, in advance, to a 25% aqueous solution of salts for Murashige & Skoog culture medium (a product of Wako Pure Chemical Industries, Ltd.), the herbicidal compound A1 and various benzoic acid compounds indicated in Table 2 to make up a concentration of 0.1 ppm and the concentrations shown in Table 2, respectively. Fifty ml each of the resulting test culture media were dispensed into a 50 ml Erlenmeyer flask to prepare various liquid culture media. Similarly, the same amount of the 25% aqueous solution of salts for Murashige & Skoog culture medium was added to the above-mentioned flask to prepare a liquid culture medium (hereinafter referred to as the untreated culture medium). Rice (Kinmaze) grown to the second leaf stage in culture soil for raising seedlings was soaked in these culture media, with the root cut off except for a 2 cm-long part thereof, and was grown in a growth chamber under the conditions of 25° C. with the lighting period of 16 hours, and the dark period of 8 hours to measure the plant length of rice, the length of the root and the living masses of the above-ground part and the root after 14 days or, namely, after lapse of 14 cycles.
Rice was grown in the same manner as in Example 14, except for not adding a benzoic acid compound. After 14 days, the plant length of rice, the length of the root, and the living masses of the above-ground part and the root were measured.

[3] = tested on: Rice (Kinmaze); experiment: Rice seedlings at second leaf stage grown in liquid culture medium with various herbicidal compounds and p-(t-butyl)benzoic acid; conditions: herbicidal compound at ppm of Table 3, with or without p-(t-butyl)benzoic acid 3 ppm; after 14 days
Protocol: The test media were prepared by adding, in advance, to a 25% aqueous solution of salts for Murashige & Skoog culture medium (a product by Wako Pure Chemical Industries, Ltd.), various herbicidal compounds indicated in Table 3 and p-(t-butyl)benzoic acid to make up concentrations indicated in Table 3 and a concentration of 3 ppm, respectively. Fifty ml each of the resulting test culture media were dispensed into a 50 ml Erlenmeyer flask to prepare various liquid culture media. Similarly, a liquid culture medium with a herbicidal compound and a benzoic acid compound not added was prepared. Rice (Kinmaze) grown to the second leaf stage in culture soil for raising seedlings was soaked in these culture media, with the root cut off except for a 2 cm-long part thereof, and was grown in a growth chamber (manufactured by SANYO Electric Co., Ltd.) under the conditions of 25° C. with the lighting period of 16 hours, and the dark period of 8 hours to measure the plant length of rice, the length of the root, and the living masses of the above-ground part and the root after 14 days.
Rice was grown in the same manner as in each of Examples 21 to 25, except for not adding a benzoic acid compound to the culture medium. After 14 days, the plant length of rice, the length of the root, and the living masses of the above-ground part and the root were measured.

SMILES	Living mass Above-ground part [3]	Living mass Root [3]	also measured
COCc1cccc(C(O)c2nc(OC)cc(OC)n2)c1NS(=O)(=O)C(F)F (stereo not shown) [Comparative Example 1, 2-[(4,6-dimethoxypyrimidin-2-yl)hydroxymethyl]-6-methoxymethyl-N-difluoromethane-sulfonylanilide]	–	–	Length of root (%) [1]: 21%
COCc1cccc(C(O)c2nc(OC)cc(OC)n2)c1NS(=O)(=O)C(F)F (stereo not shown) [Comparative Example 2, 2-[(4,6-dimethoxypyrimidin-2-yl)hydroxymethyl]-6-methoxymethyl-N-difluoromethane-sulfonylanilide]	–	–	Length of root [2]: 2.1 cm; Living mass Above-ground part [2]: 0.16 g; Living mass Root [2]: 0.07 g; Plant length [2]: 15.6 cm
COC(=O)c1ccccc1CS(=O)(=O)NC(=O)Nc1nc(OC)cc(OC)n1 [compound 3, Bensulfuron-methyl]	0.11 g	0.05 g	–
CCOC(=O)c1cnn(C)c1S(=O)(=O)NC(=O)Nc1nc(OC)cc(OC)n1 [compound 4, Pyrazosulfuron-ethyl]	0.07 g	0.04 g	Length of root [3]: 2.0 cm; Plant length [3]: 11.7 cm
CCCCOCN(C(=O)CCl)c1c(CC)cccc1CC [compound 5, Butachlor]	0.14 g	0.09 g	–
CCN(CC)C(=O)SCc1ccc(Cl)cc1 [compound 6, Thiobencarb]	0.23 g	0.18 g	–
CCN(C(=O)n1nnn(-c2ccccc2Cl)c1=O)C1CCCCC1 [compound 7, Fentrazamide]	0.08 g	0.05 g	Length of root [3]: 2.2 cm; Plant length [3]: 11.6 cm
